Results: the supplement of paper PMC10307832

Legend:
Experiment in all cases: relative viability (nuclei count vs DMSO), 5 days (fraction); higher = more cells survive
[1] = compound: C1=CC(=CC=C1NC(=S)NNC2=C(C=C(C=C2[N+](=O)[O-])C(F)(F)F)[N+](=O)[O-])F [Kobe2602] + Cc1cc(Nc2cc(N3CCN(C)CC3)nc(Sc3ccc(NC(=O)C4CC4)cc3)n2)n[nH]1 [Tozasertib] (partner 0.1 µM)
In short: (§1)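 Five library-drug doses in √10 steps were combined with a fixed anchor-drug dose, or a single drug was given alone, by pin tool to lung cancer cell lines in 1536-well plates the day after seeding. Nuclei were stained and counted after 5 days. Relative viability is the nuclei count in treated wells over that in vehicle wells, taken as the median of duplicate plates.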

[2] = compound: C1=CC(=CC=C1NC(=S)NNC2=C(C=C(C=C2[N+](=O)[O-])C(F)(F)F)[N+](=O)[O-])F [Kobe2602] + O=C(c1cc(Cc2n[nH]c(=O)c3ccccc23)ccc1F)N1CCN(C(=O)C2CC2)CC1 [Olaparib] (partner 8 µM)
In short: as §1

[3] = compound: COc1cc2nccc(Oc3ccc(NC(=O)C4(C(=O)Nc5ccc(F)cc5)CC4)cc3)c2cc1OC [Cabozantinib] + C[C@]1(O)C[C@@H](c2nc(-c3ccc4ccc(-c5ccccc5)nc4c3)c3c(N)nccn32)C1 [Linsitinib] (partner 1 µM)
In short: as §1

[4] = compound: COc1cc2nccc(Oc3ccc(NC(=O)C4(C(=O)Nc5ccc(F)cc5)CC4)cc3)c2cc1OC [Cabozantinib] + N=C(N)NC(=N)NCCc1ccccc1 [Phenformin] (partner 250 µM)
In short: as §1

Row | Cell Line | relative viability ([1]; first compound 0.2 µM) | relative viability ([1]; first compound 0.6325 µM) | relative viability ([1]; first compound 2 µM) | relative viability ([1]; first compound 6.325 µM) | relative viability ([1]; first compound 20 µM) | relative viability ([2]; first compound 0.2 µM) | relative viability ([2]; first compound 0.6325 µM) | relative viability ([2]; first compound 2 µM) | relative viability ([2]; first compound 6.325 µM) | relative viability ([2]; first compound 20 µM) | relative viability ([3]; first compound 0.02 µM) | relative viability ([3]; first compound 0.06325 µM) | relative viability ([3]; first compound 0.2 µM) | relative viability ([3]; first compound 0.6325 µM) | relative viability ([3]; first compound 2 µM) | relative viability ([4]; first compound 0.02 µM) | relative viability ([4]; first compound 0.06325 µM) | relative viability ([4]; first compound 0.2 µM) | relative viability ([4]; first compound 0.6325 µM) | relative viability ([4]; first compound 2 µM)
1 | RERF-LC-KJ | 0.492 | 0.528 | 0.473 | 0.285 | 0.271 | 0.936 | 0.957 | 0.9 | 0.525 | 0.282 | 0.909 | 0.885 | 0.813 | 0.883 | 0.875 | 0.442 | 0.404 | 0.44 | 0.418 | 0.413
2 | NCI-H1395 | 0.72 | 0.793 | 0.878 | 0.741 | 0.776 | 0.447 | 0.487 | 0.463 | 0.535 | 0.486 | 1.25 | 1.27 | 1 | 1.13 | 0.958 | 0.465 | 0.477 | 0.472 | 0.438 | 0.448
3 | NCI-H1651 | 0.683 | 0.681 | 0.621 | 0.584 | 0.774 | 0.186 | 0.165 | 0.189 | 0.19 | 0.193 | 1.06 | 0.969 | 1.06 | 0.958 | 0.733 | 0.316 | 0.329 | 0.316 | 0.298 | 0.292
4 | NCI-H1734 | 0.282 | 0.252 | 0.24 | 0.28 | 0.246 | 0.601 | 0.626 | 0.635 | 0.642 | 0.665 | 0.959 | 0.916 | 0.929 | 0.831 | 0.517 | 0.368 | 0.395 | 0.403 | 0.406 | 0.355
5 | NCI-H520 | 0.519 | 0.507 | 0.402 | 0.38 | 0.481 | 0.333 | 0.38 | 0.381 | 0.353 | 0.333 | 0.923 | 1.05 | 0.938 | 0.796 | 0.815 | 0.608 | 0.598 | 0.65 | 0.672 | 0.432
6 | PC-14 | 0.606 | 0.562 | 0.596 | 0.602 | 0.559 | 0.24 | 0.356 | 0.256 | 0.259 | 0.101 | 1.09 | 1 |  | 0.961 | 0.927 | 0.531 | 0.93 |  | 0.591 | 0.552
7 | NCI-H2347 | 0.708 | 0.647 | 0.512 | 0.495 | 0.55 | 0.603 | 0.548 | 0.559 | 0.53 | 0.607 | 0.967 | 0.961 | 0.992 | 0.846 | 0.81 | 0.449 | 0.604 | 0.596 |  | 0.318
8 | NCI-H1793 | 0.279 | 0.305 | 0.292 | 0.417 | 0.278 | 0.91 | 0.852 | 0.744 | 0.883 | 0.977 | 1.21 | 1.01 | 0.7 | 0.814 | 0.65 | 0.347 | 0.441 | 0.303 | 0.326 | 0.296
9 | NCI-H650 | 0.738 | 0.757 | 0.746 | 0.789 | 0.623 | 0.4 | 0.443 | 0.37 | 0.403 | 0.401 | 0.846 | 1.02 | 1.05 | 0.971 | 0.774 |  | 0.497 | 0.454 | 0.465 | 0.404
10 | NCI-H596 | 0.763 | 0.763 | 0.813 | 0.798 | 0.746 | 0.758 | 0.661 | 0.718 | 0.718 | 0.799 | 1.19 | 1.17 | 1.11 | 0.997 | 0.994 | 0.728 | 0.883 | 0.778 | 0.796 | 0.664
